ChEMBL document CHEMBL1201862, “PubChem BioAssay data set” (2004)
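48-hour exposure; five concentrations; linearly interpolated endpoints. The concentration for 50% growth inhibition is given as GI50.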 The source made the active and inactive calls. Rule as the data show it: active = GI50 up to about 1.1 µM and inactive = higher.

What was measured:
Assay in all cases: NCI anticancer screen, dose series, 48 h
CCRF-CEM = system: CCRF-CEM
RXF 393 = system: RXF 393
SF-295 = system: SF-295
HL-60 = system: HL-60
UACC-257 = system: UACC-257
ACHN = system: ACHN
NCI-H23 = system: NCI-H23
SK-MEL-5 = system: SK-MEL-5
OVCAR-3 = system: OVCAR-3
SK-MEL-2 = system: SK-MEL-2
786-0 = system: 786-0
SK-MEL-28 = system: SK-MEL-28
EKVX = system: EKVX
DU-145 = system: DU-145
RPMI-8226 = system: RPMI-8226
MDA-MB-231 = system: MDA-MB-231
CAKI-1 = system: CAKI-1
NCI/ADR-RES = system: NCI/ADR-RES
HT-29 = system: HT-29

SMILES | GI50 (CCRF-CEM) | GI50 (RXF 393) | GI50 (SF-295) | GI50 (HL-60) | GI50 (UACC-257) | GI50 (ACHN) | GI50 (NCI-H23) | GI50 (SK-MEL-5) | GI50 (OVCAR-3) | GI50 (SK-MEL-2) | GI50 (786-0) | GI50 (SK-MEL-28) | GI50 (EKVX) | GI50 (DU-145) | GI50 (RPMI-8226) | GI50 (MDA-MB-231) | GI50 (CAKI-1) | GI50 (NCI/ADR-RES) | GI50 (HT-29)
CCOP(=O)(OCC)C(C)(C)OC(=O)NC(F)(F)F | > 100 µM (inactive) | > 100 µM (inactive) | > 100 µM (inactive) | > 100 µM (inactive) | > 100 µM (inactive) | > 100 µM (inactive) | > 100 µM (inactive) | > 100 µM (inactive) | > 100 µM (inactive) | > 100 µM (inactive) | > 100 µM (inactive) | > 100 µM (inactive) | > 100 µM (inactive) | > 100 µM (inactive) | > 100 µM (inactive) | > 100 µM (inactive) | > 100 µM (inactive) | > 100 µM (inactive) | > 100 µM (inactive)
CS(=O)(=O)Nc1ccc2c(c1)N(S(C)(=O)=O)CC2CCl (centres undefined) | > 100 µM (inactive) | > 100 µM (inactive) | > 100 µM (inactive) | > 100 µM (inactive) | > 100 µM (inactive) | > 100 µM (inactive) | > 100 µM (inactive) | > 100 µM (inactive) | > 100 µM (inactive) | > 100 µM (inactive) | > 100 µM (inactive) | > 100 µM (inactive) | > 100 µM (inactive) | > 100 µM (inactive) | > 100 µM (inactive) | > 100 µM (inactive) | > 100 µM (inactive) | > 100 µM (inactive) | > 100 µM (inactive)
CCCCCCc1cc2cc(C(=O)Nc3cccc(C(F)(F)F)c3)c(=N)oc2cc1O | 0.933 µM (active) | 0.49 µM (active) | 2.9 µM (inactive) | 1.44 µM (inactive) | 2.44 µM (inactive) | 1.56 µM (inactive) | 0.185 µM (active) | 1.13 µM (inactive) | 2.07 µM (inactive) | 2.17 µM (inactive) | 1.37 µM (inactive) | 2.57 µM (inactive) | 2.94 µM (inactive) | 1.37 µM (inactive) | 0.524 µM (active) | 2.31 µM (inactive) | 2.32 µM (inactive) | 2.06 µM (inactive) | 5.96 µM (inactive)
Nc1nccc(NCC2(CO)CC(OCc3ccccc3)C2)n1 (centres undefined) | > 100 µM (inactive) | > 100 µM (inactive) | > 100 µM (inactive) | > 100 µM (inactive) | > 100 µM (inactive) | > 100 µM (inactive) | > 100 µM (inactive) | 35.8 µM (inactive) | 87.5 µM (inactive) | > 100 µM (inactive) | > 100 µM (inactive) | > 100 µM (inactive) | 77.4 µM (inactive) | 79.4 µM (inactive) | > 100 µM (inactive) | > 100 µM (inactive) | > 100 µM (inactive) | > 100 µM (inactive) | > 100 µM (inactive)
CC1(C)CC(=O)C2=C(C1)OC1(CC2c2ccc(Cl)cc2)CC(c2ccc(Cl)cc2)C2=C(CC(C)(C)CC2=O)O1 (centres undefined) | 15.5 µM (inactive) | 26.1 µM (inactive) | 22.2 µM (inactive) | 3.58 µM (inactive) | 17 µM (inactive) | 18.5 µM (inactive) | 16.3 µM (inactive) | 14.8 µM (inactive) | 3.44 µM (inactive) | 18.8 µM (inactive) | 15.7 µM (inactive) | 15.2 µM (inactive) | 16.1 µM (inactive) | 19.6 µM (inactive) | 9.46 µM (inactive) | 24.4 µM (inactive) | 26.9 µM (inactive) | > 38.5 µM (inactive) | 28.2 µM (inactive)
Cc1cccc2[nH]c3c(c(O)cc4[nH]c5cccc(C)c5c(=O)c43)c(=O)c12 | > 10 µM (inactive) | 7 µM (inactive) | 7.53 µM (inactive) | 3.33 µM (inactive) | 4.55 µM (inactive) | 5.83 µM (inactive) | 3 µM (inactive) | 9.04 µM (inactive) | 6 µM (inactive) | > 10 µM (inactive) | 2.99 µM (inactive) | > 10 µM (inactive) | 6.53 µM (inactive) | 5.98 µM (inactive) | > 10 µM (inactive) | 8.11 µM (inactive) | > 10 µM (inactive) | > 10 µM (inactive) | 3.85 µM (inactive)
